Reference: patent US7932277B2, “Peptide inhibitors of hepatitis C virus replication” (InterMune, Inc., priority 2007, dated 2011)

Assays:
[1] = molecular target: T1, NS3/NS4A-2 (full-length HCV NS3 protease complexed with NS4A-2) (Hepatitis C virus genotype 1a, UniProt P27958); assay: NS3 inhibition assay (NS3-NS4 protease assay); assay type: biochemical; conditions: recombinant full-length NS3/NS4A-2, RETS1 substrate, kinetic fluorescence read; read-out: NS3-NS4 IC50
T1 construct: Recombinant E. coli or Baculovirus full-length NS3; host or cells: E. coli or baculovirus (insect cells)
T1 sequence (P27958 1027-1657, one chain of several): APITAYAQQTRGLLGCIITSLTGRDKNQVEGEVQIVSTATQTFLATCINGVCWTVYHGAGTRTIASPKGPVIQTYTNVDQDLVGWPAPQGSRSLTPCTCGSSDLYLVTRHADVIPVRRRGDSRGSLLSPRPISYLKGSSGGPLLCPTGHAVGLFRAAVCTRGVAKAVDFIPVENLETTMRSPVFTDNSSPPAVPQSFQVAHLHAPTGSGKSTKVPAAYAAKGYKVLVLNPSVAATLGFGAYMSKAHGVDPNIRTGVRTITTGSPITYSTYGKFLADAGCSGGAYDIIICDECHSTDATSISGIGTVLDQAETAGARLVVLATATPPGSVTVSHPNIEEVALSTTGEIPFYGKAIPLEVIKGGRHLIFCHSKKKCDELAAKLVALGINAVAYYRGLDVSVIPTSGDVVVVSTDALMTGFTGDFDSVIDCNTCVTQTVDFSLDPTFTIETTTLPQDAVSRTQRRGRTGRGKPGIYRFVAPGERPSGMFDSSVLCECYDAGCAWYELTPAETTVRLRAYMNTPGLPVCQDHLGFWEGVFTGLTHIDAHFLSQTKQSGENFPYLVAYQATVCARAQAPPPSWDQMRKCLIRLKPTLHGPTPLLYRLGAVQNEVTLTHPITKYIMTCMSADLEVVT
Procedure: Recombinant E. coli or Baculovirus full-length NS3 was diluted to 3.33 μM with assay buffer and transferred material to an eppendorf tube and place in water bath in 4° C. refrigerator. The appropriate amount of NS4A-2 to 8.3 mM in assay buffer was added to equal the volume of NS3 in step 2.1.1 (conversion factor −3.8 mg/272 μL assay buffer). The material was transferred to an eppendorf tube and place in water bath in 4° C. refrigerator.
After equilibration to 4° C., equal volumes of NS3 and NS4A-2 solutions were combined in an eppendorf tube, mix gently with a manual pipettor, and incubate mixture for 15 minutes in the 4° C. water bath. Final concentrations in the mixture are 1.67 μM NS3, 4.15 mM NS4A-2 (2485-fold molar excess NS4A-2).
After 15 minutes at 4° C., the NS3/NS4A-2 eppendorf tube was removed and place it in a room temperature water bath for 10 minutes. NS3/NS4A-2 was aliquoted at appropriate volumes and store at −80° C. (E. coli NS3 run at 2 nM in assay, aliquot at 25 μL. BV NS3 run at 3 nM in assay, aliquot at 30 μL).
Sample compounds were dissolved to 10 mM in DMSO then diluted to 2.5 mM (1:4) in DMSO. Typically, compounds were added to an assay plate at 2.5 mM concentration, yielding upon dilution a starting concentration of 50 microM in the assay inhibition curve. Compounds were serial diluted in assay buffer to provide test solutions at lower concentrations.
The E. coli. NS3/NS4A-2 was diluted to 4 nM NS3 (1:417.5 of 1.67 μM stock−18 μL1.67 μM stock+7497 μL assay buffer). The BV NS3/NS4A-2 was diluted to 6 nM NS3 (1:278.3 of 1.67 μM stock−24 μL1.67 μM stock+6655 μL assay buffer). Using the manual multichannel pipettor, careful not to introduce bubbles into the plate, add 50 μL assay buffer to wells A01-H01 of a black Costar 96-well polypropylene storage plate.
Using the manual multichannel pipettor, careful not to introduce bubbles into the plate, add 50 μL of diluted NS3/NS4A-2 from step 2.2.6 to wells A02-H12 of plate in step 2.2.7. Using the manual multichannel pipettor, careful not to introduce bubbles into the plate, transfer 25 μL of the wells in drug dilution plate in step 2.2.5 to corresponding wells in assay plate in step 2.2.8. Change tips on multichannel pipettor for each row of compounds transferred. Using the manual multichannel pipettor, careful not to introduce bubbles into the plate, mix the wells from the assay plate in step 2.2.9 by aspirating and dispensing 35 μL of the 75 μL in each well five times. Change tips on multichannel pipettor for each row of wells mixed. Cover plate with a polystyrene plate lid and pre-incubate the plate from step 2.2.10 containing NS3 protease and sample compounds 10 minutes at room temperature. While plate from step 2.2.11 is pre-incubating, dilute RETS1 substrate in a 15 mL polypropylene centrifuge tube. Dilute RETS1 substrate to 8 μM (1:80.75 of 646 μM stock−65 μL 646 μM stock+5184 μL assay buffer).
After the plate in step is done pre-incubating, and using the manual multichannel, add 25 μL of substrate to all wells on the plate. Quickly mix the plate as in step 2.2.10, mixing 65 μL of the 100 μL in the wells.
Read the plate in kinetic mode on the Molecular Devices SpectraMax Gemini XS plate reader. Reader settings: Read time: 30 minutes, Interval: 36 seconds, Reads: 51, Excitation λ: 335 nm, Emission λ: 495 nm, cutoff: 475 nm, Automix: off, Calibrate: once, PMT: high, Reads/well: 6, Vmax pts: 21 or 28/51 depending on length of linearity of reaction
IC50s are determined using a four parameter curve fit equation, and converted to Ki's using the following Km's: • Full-length E. coli NS3−2.03 μM • Full-length BV NS3−1.74 μM • where Ki=IC50/(1+[S]/Km)) • Quantitation by ELISA of the Selectable Marker Protein, Neomycin Phosphotransferase II (NPTII) in the HCV Sub-Genomic Replicon, GS4.3

[2] = tested on: HCV sub-genomic replicon (1377/NS3-3') in HuH-7 hepatoma cells (GS4.3); assay: Quantitation by ELISA of NPTII in the HCV sub-genomic replicon, GS4.3; assay type: cell-based, hepatitis C virus (HCV); conditions: Hepatitis C virus, Huh-7; GS4.3 cells, 72 h incubation, NPTII ELISA; read-out: Replicon EC50
Procedure: The HCV sub-genomic replicon (1377/NS3-3′, accession No. AJ242652), stably maintained in HuH-7 hepatoma cells, was created by Lohmann et al. Science 285: 110-113 (1999). The replicon-containing cell culture, designated GS4.3, was obtained from Dr. Christoph Seeger of the Institute for Cancer Research, Fox Chase Cancer Center, Philadelphia, Pa.
GS4.3 cells were maintained at 37° C., 5% CO2, in DMEM (Gibco 11965-092) supplemented with L-glutamine 200 mM (100×) (Gibco25030-081), non-essential amino acids (NEAA) (Biowhittaker 13-114E), heat-inactivated (HI) Fetal Bovine Serum (FBS) (Hyclone SH3007.03) and 750 μg/mL geneticin (G418)(Gibco 10131-035). Cells were sub-divided 1:3 or 4 every 2-3 days.
24 h prior to the assay, GS4.3 cells were collected, counted, and plated in 96-well plates (Costar 3585) at 7500 cells/well in 100 μL standard maintenance medium (above) and incubated in the conditions above. To initiate the assay, culture medium was removed, cells were washed once with PBS (Gibco 10010-023) and 90 μl Assay Medium (DMEM, L-glutamine, NEAA, 10% HI FBS, no G418) was added. Inhibitors were made as a 10× stock in Assay Medium, (3-fold dilutions from 10 μM to 56 pM final concentration, final DMSO concentration 1%), 10 μL were added to duplicate wells, plates were rocked to mix, and incubated as above for 72 h.
An NPTII Elisa kit was obtained from AGDIA, Inc. (Compound direct ELISA test system for Neomycin Phosphotransferase II, PSP 73000/4800). Manufacturer's instructions were followed, with some modifications. 10×PEB-1 lysis buffer was made up to include 500 μM PMSF (Sigma P7626, 50 mM stock in isopropanol). After 72 h incubation, cells were washed once with PBS and 150 μL PEB-1 with PMSF was added per well. Plates were agitated vigorously for 15 minutes, room temperature, then frozen at −70° C. Plates were thawed, lysates were mixed thoroughly, and 100 μl were applied to an NPTII Elisa plate. A standard curve was made. Lysate from DMSO-treated control cells was pooled, serially diluted with PEB-1 with PMSF, and applied to duplicate wells of the ELISA plate, in a range of initial lysate amount of 150 μL-2.5 μL. In addition, 100 μL buffer alone was applied in duplicate as a blank. Plates were sealed and gently agitated at room temperature for 2 h. Following capture incubation, the plates were washed 5×300 μL with PBS-T (0.5% Tween-20, PBS-T was supplied in the ELISA kit). For detection, a 1× dilution of enzyme conjugate diluent MRS-2 (5×) was made in PBS-T, into which 1:100 dilutions of enzyme conjugates A and B were added, as per instructions. Plates were resealed, and incubated with agitation, covered, room temperature, for 2 h. The washing was then repeated and 100 μL of room temperature TMB substrate was added. After approximately 30 minutes incubation (room temperature, agitation, covered), the reaction was stopped with 50 μL 3M sulfuric acid. Plates were read at 450 nm on a Molecular Devices Versamax plate reader.
Inhibitor effect was expressed as a percentage of DMSO-treated control signal, and inhibition curves were calculated using a 4-parameter equation: y=A+((B−A)/(1+((C/x)^D))), where C is half-maximal activity or EC50.

C=C[C@@H]1C[C@]1(NC(=O)[C@@H]1C[C@@H](OC(=O)N2Cc3cccc(F)c3C2)CN1C(=O)[C@@H](Nc1ccc(F)nc1)C(C)C)C(=O)NS(=O)(=O)C1CC1 [Compound 39, [(3R,5S)-5-((1R,2S)-1-(cyclopropylsulfonylcarbamoyl)-2-vinylcyclopropylcarbamoyl)-1-((S)-2-(6-fluoropyridin-3-ylamino)-3-methylbutanoyl)pyrrolidin-3-yl]4-fluoroisoindoline-2-carboxylate] gave an IC50 [1] of under 100 nM and an EC50 [2] of 100 to 1000 nM.
“[(3R,5S)-5-(((1R,2R)-1-(Cyclopropylsulfonylcarbamoyl)-2-ethylcyclopropyl)carbamoyl)-1-((S)-2-(5-isopropylthiazol-2-ylamino)-3,3-dimethylbutanoyl)pyrrolidin-3-yl]4-chloroisoindoline-2-carboxylate [Compound 65]” showed an IC50 [1] of under 100 nM.
With CC[C@@H]1C[C@]1(NC(=O)[C@@H]1C[C@@H](OC(=O)N2Cc3cccc(Cl)c3C2)CN1C(=O)[C@@H](Nc1cccc(C(C)(C)C)c1)C(C)C)C(=O)NS(=O)(=O)C1CC1 [Compound 46, [(3R,5S)-1-((S)-2-(3-tert-butylphenylamino)-3-methylbutanoyl)-5-((1R,2R)-1-(cyclopropylsulfonylcarbamoyl)-2-ethylcyclopropylcarbamoyl)pyrrolidin-3-yl]4-chloroisoindoline-2-carboxylate] the IC50 [1] was under 100 nM and the EC50 [2] was under 100 nM.
CC[C@@H]1C[C@]1(NC(=O)[C@@H]1C[C@@H](OC(=O)N2Cc3cccc(F)c3C2)CN1C(=O)[C@@H](Nc1cccc(C(C)(C)C#N)c1)C(C)C)C(=O)NS(=O)(=O)C1CC1 [Compound 53, [(3R,5S)-1-((S)-2-(3-(2-cyanopropan-2-yl)phenylamino)-3-methylbutanoyl)-5-((1R,2R)-1-(cyclopropylsulfonylcarbamoyl)-2-ethylcyclopropylcarbamoyl)-pyrrolidin-3-yl]4-fluoroisoindoline-2-carboxylate] showed an IC50 [1] of under 100 nM and an EC50 [2] of under 100 nM.
CC(C)[C@H](Nc1cccc(C(C)(C)C)c1)C(=O)N1C[C@H](OC(=O)N2Cc3cccc(Cl)c3C2)C[C@H]1C(=O)N[C@]1(C(=O)NS(=O)(=O)C2CC2)C[C@H]1C1CC1 [Compound 59, [(3R,5S)-1-((S)-2-(3-tert-butylphenylamino)-3-methylbutanoyl)-5-((1R,2S)-1-(cyclopropylsulfonylcarbamoyl)-2-cyclopropylcyclopropylcarbamoyl)pyrrolidin-3-yl]4-chloroisoindoline-2-carboxylate] showed an IC50 [1] of under 100 nM and an EC50 [2] of under 100 nM.
With CC[C@@H]1C[C@]1(NC(=O)[C@@H]1C[C@@H](OC(=O)N2Cc3cccc(Cl)c3C2)CN1C(=O)[C@@H](Nc1cccc(C(C)(C)C#N)c1)C(C)C)C(=O)NS(=O)(=O)C1CC1 [Compound 54, [(3R,5S)-1-((S)-2-(3-(2-cyanopropan-2-yl)phenylamino)-3-methylbutanoyl)-5-((1R,2R)-1-(cyclopropylsulfonylcarbamoyl)-2-ethylcyclopropylcarbamoyl)-pyrrolidin-3-yl]4-chloroisoindoline-2-carboxylate] the IC50 [1] was under 100 nM and the EC50 [2] was under 100 nM.
C=C[C@@H]1C[C@]1(NC(=O)[C@@H]1C[C@@H](OC(=O)N2Cc3cccc(Cl)c3C2)CN1C(=O)[C@@H](Nc1ccc(F)cc1)C(C)C)C(=O)NS(=O)(=O)C1CC1 [Compound 34, [(3R,5S)-5-((1R,2S)-1-(cyclopropylsulfonylcarbamoyl)-2-vinylcyclopropylcarbamoyl)-1-((S)-2-(4-fluorophenylamino)-3-methylbutanoyl)pyrrolidin-3-yl]4-chloroisoindoline-2-carboxylate] gave an IC50 [1] of under 100 nM and an EC50 [2] of under 100 nM.
CC[C@@H]1C[C@]1(NC(=O)[C@@H]1C[C@@H](OC(=O)N2Cc3cccc(Cl)c3C2)CN1C(=O)[C@@H](Nc1cc(F)cc(C(F)(F)F)c1)C(C)(C)C)C(=O)NS(=O)(=O)C1CC1 [Compound 77] gave an EC50 [2] of under 100 nM.
CC[C@@H]1C[C@]1(NC(=O)[C@@H]1C[C@@H](OC(=O)N2Cc3cccc(Cl)c3C2)CN1C(=O)[C@@H](Nc1cc(F)cc(C(F)(F)F)c1)C(C)(C)C)C(=O)NS(=O)(=O)C1CC1 [Compound 73, (3R,5S)-5-((1R,2R)-1-(cyclopropylsulfonylcarbamoyl)-2-ethylcyclopropylcarbamoyl)-1-((S)-2-(3-fluoro-5-(trifluoromethyl)phenylamino)-3,3-dimethylbutanoyl)pyrrolidin-3-yl 4-chloroisoindoline-2-carboxylate] gave an IC50 [1] of under 100 nM.
